From patent US20240101548A1, “HYDROXAMATE COMPOUND, PREPARATION METHOD THEREFOR AND APPLICATION THEREOF” (SHENZHEN CHIPSCREEN BIOSCIENCES CO., LTD., priority 2020, published 2024) come the findings set out here.

As usually defined, the pIC50 is −log10 of the IC50, conventionally taken in molar units.

Assay [1] relates to INF-α-induced pSTAT5 in human PBMC. Kind of assay: INF-α-induced pSTAT5 in human PBMC (FACS, CD3 positive cells). The format is cell-based. Particulars: Homo sapiens, PBMC, IFN-α 30 ng/ml, read-out: Inhibition activity IC50 on INF-α-induced pSTAT5 in human PBMC. As to the method:
hPBMC (available from Shanghai AoNeng Biotechnology Co., Ltd.) was inoculated in 96-well plate, added with compound of the present invention (at concentrations of 40 nM and 200 nM), incubated for 60 min (compound in concentrations of 2 nM, 10 nM respectively during the incubation); added with 30 ng/ml of stimulating factor IFN-α (BioLegend) together with anti-CD3 antibody (Biolegend) and then continued to be incubated for 30 min. After the incubation, each well was added with 1 mL of fixing solution (BD Biosciences), the obtained mixture was incubated for 10 min followed by centrifugation, added with 400 μL/well of Perm III (BD Biosciences), followed by further incubation at 4° C. for 30 min. The obtained mixture was added with mouse anti-human pSTAT5 antibody (Alexa Fluor® 647 Conjugate), followed by incubation at room temperature for 40 min. Fluorescence intensity of pSTAT5 in CD3 positive cells was detected by FACS.
Inhibition rate at individual compound concentration was calculated with the following formula:
Inhibition rate=(MFI value(IFN-α-stimulated control)−MI value(2/10 nM compound treated group)/MFI value(IFN-α-stimulated control)[…]
wherein: MFI value meant fluorescence intensity value; IFN-α-stimulated control meant control group which was operated similarly to the experimental groups but no compound of the present invention was added.

Assay [2] deals with EPO-induced JAK2 signal pathway. Kind of assay: EPO-induced proliferation of UT-7 cells (JAK2 signal). The format is cell-based, human. Particulars: Homo sapiens, UT7; UT-7 cell proliferation, EPO 10 ng/mL, 72 hours; read-out: Inhibition activity IC50 on EPO-induced JAK2 signal pathway. The procedure, abridged:
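UT-7 cells (15000/well) stimulated with 10 ng/mL human recombinant EPO plus compound at final 0, 100, 1000 or 10000 nM, 72 h at 37° C., 5% CO2. Proliferation by alamarBlue fluorescence (Ex530/Em590); inhibition normalised to no-cytokine/no-compound (0) and EPO-only (100) wells, […] derived from dose-inhibition.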

Assay [3] has as its target TYK2 JH2 domain (Homo sapiens (Human), UniProt P29597). Kind of assay: TYK2 JH2 domain FRET tracer assay. The following applies: FRET 665/615 nm; read-out: Inhibition activity IC50 on TYK2 JH2 domain. The format is binding. The method, then:
Compound of the present invention formulated into different concentrations (series 3 times dilutions, started from 60 μM, 11 concentrations in total) was added to 384-well plate, followed by 5 μL of enzyme (i.e., TYK2 JH2 domain), Tb antibody (Cisbio) and tracer. The mixture was incubated at 25° C. for 60 min and left at 4° C. overnight.

SMILES strings stand for the structures. pIC50: −log10 of the molar value.

TYK2 JH2 domain, sequence (P29597 589-875): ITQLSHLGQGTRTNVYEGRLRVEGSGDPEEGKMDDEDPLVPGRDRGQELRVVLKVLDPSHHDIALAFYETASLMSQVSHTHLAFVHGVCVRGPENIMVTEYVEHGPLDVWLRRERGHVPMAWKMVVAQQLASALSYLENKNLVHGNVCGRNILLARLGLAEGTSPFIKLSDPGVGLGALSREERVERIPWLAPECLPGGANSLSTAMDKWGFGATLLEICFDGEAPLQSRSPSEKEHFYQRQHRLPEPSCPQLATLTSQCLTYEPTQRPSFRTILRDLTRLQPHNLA

For `CCONC(=O)c1cnc(Nc2cc(C)nc(C)n2)cc1Nc1ccc(C(F)(F)F)cc1N(C)S(C)(=O)=O` [Example 202, 6-((2,6-dimethylpyrimidin-4-yl)amino)-N-ethoxy-4-((2-(N-methylmethanesulfonamido)-4-(trifluoromethyl)phenyl)amino)nicotinamide], the pIC50 in assay [1] is over 8.70; in assay [2], under 5.00; in assay [3] it was 10.22.

`CCONC(=O)c1cnc(Nc2cc(C)nc(C)n2)cc1Nc1cccc(-c2ncccn2)c1OC` [Example 212]: the pIC50 in assay [1] was over 8.70; in assay [2], under 5.00; in assay [3] it was 10.30.

With `CCONC(=O)c1cnc(Nc2cc(C)nc(C)n2)cc1Nc1cc(F)cc(-c2ncccn2)c1OC` [Example 215, 6-((2,6-dimethylpyrimidin-4-yl)amino)-N-ethoxy-4-((5-fluoro-2-methoxy-3-(pyrimidin-2-yl)phenyl)amino)nicotinamide], the results for the negative-log IC50 (pIC50) in assay [1], in assay [2] and in assay [3] were over 8.70, under 5.00 and 10.15, respectively.

On to `CCONC(=O)c1cnc(NC(=O)C2CC2)cc1Nc1cccc(-c2ncc(Cl)cn2)c1OC` [Example 219, 4-((3-(5-chloropyrimidin-2-yl)-2-methoxyphenyl)amino)-6-(cyclopropylcarboxamido)-N-ethoxy nicotinamide], for which the values for the pIC50 in assay [1], in assay [2] and in assay [3] were over 8.70, under 5.00 and 9.89, respectively.

As for `CCONC(=O)c1cnc(Nc2cc(C)nc(C)n2)cc1Nc1cccc(-c2ncc(C)cn2)c1OC` [Example 238, 6-((2,6-dimethylpyrimidin-4-yl)amino)-N-ethoxy-4-((2-methoxy-3-(5-methylpyrimidin-2-yl)phenyl)amino)nicotinamide], the pIC50 in assay [1] was over 8.70; in assay [2], under 5.00.
